The values that follow are results of earlier work, collected in patent US20110311589A1 (priority 2008, published 2011).

The series deals with helminthiasis. Particulars: in vivo.

Consider `c1ccc([C@H]2CN3CCSC3=N2)cc1` [Levamisole], for which the “Dosages too low, ineffective in treating helminthiasis” value is “less than 6 mg per kg of body weight”.
